The target in this experiment is T1, SYK kinase (Homo sapiens, UniProt P43405).
T1 construct: purchased Invitrogen, Carlsbad
Put plainly: SYK assay (OMNIA Kinase Assay, Invitrogen). The format is biochemical. To be noted: apparent Ki calculated from the IC50 using the Cheng-Prusoff equation; 1 mM ATP, 10 μM Peptide Substrate; read-out: SYK Activities: Ki. Here is the method: In the assay OMNIA® KINASE ASSAY by Invitrogen Corporation (Carlsbad) the effect of invention of a compound on the phosphorylation is determined by measurement of fluorescence intensity of a chelation-enhanced fluorophore called SOX. Upon phosphorylation of the peptide by the kinase of interest, Mg2+ is chelated to form a bridge between the SOX moiety and the phosphate group that is transferred to the specific tyrosine on the peptide. The fluorescence intensity is directly proportional to the amount of peptide phosphorylation.
To the wells of an 384 well small volume plate (Greiner, Frickenhausen) are added (i) the compound under test in 5% DMSO/distilled water (2 μl), (ii) 16 μl of the master mix containing ATP, DTT, Kinase Reaction Buffer, Omina Peptide Substrate Tyr 7 resulting in a final concentration of 1 mM ATP, 0.2 mM DTT and 10 μM Peptide Substrate.
The Master Mix and the assay plate was incubated to reaction temperature before the measurement (30° C.). The reaction was started with addition of (iii) 2 μl 4 μg/ml SYK kinase (Invitrogen, Carlsbad). During measurement fluorescence intensitiy readings were collected using a TECAN M1000 at a wavelength of λex 360/λem 485 nm every 30 s for 30 minutes. The reaction velocity was plotted versus the inhibitor concentration to determine the IC50 using XLFit 5.0 (IDBS, Guildford) to fit to a sigmoidal dose response curve, and the apparent Ki values were calculated from the IC50 using the Cheng-Prusoff equation (Cheng, Y.; Prusoff, W. H. Biochem. Pharmacol. 22, 3099-3108, 1973).
In the case of `COc1ccc2nc(Nc3ccc4[nH]ncc4c3)c3n[nH]cc3c2n1` [Example #90, (1H-Indazol-5-yl)-(8-methoxy-2H-2,3,5,9-tetraaza-cyclopenta[a]naphthalen-4-yl)-amine], the Ki is 100 to 1000 nM.

For `COc1cc(OC)c2nc(Nc3ccc(NC(=O)Nc4cccc(C)c4)cc3)c3n[nH]cc3c2c1` [Example #297, 1-(4-((6,8-dimethoxy-2H-pyrazolo[3,4-c]quinolin-4-yl)amino)phenyl)-3-(m-tolyl)urea], the Ki was 100 to 1000 nM.

For the compound `COc1ccc2c(c1)nc(Nc1ccc3c(c1)OCCO3)c1n[nH]cc12` [Example #265, (2,3-Dihydro-benzo[1,4]dioxin-6-yl)-(7-methoxy-2H-pyrazolo[3,4-c]quinolin-4-yl)-amine], the Ki was 10 to 100 nM.

On to `COc1ccc2nc(Nc3ccc([N+](=O)[O-])cc3)c3n[nH]cc3c2c1` [Example #318, 8-methoxy-N-(4-nitrophenyl)-2H-pyrazolo[3,4-c]quinolin-4-amine], for which the Ki is < 10 nM.

`COc1ccc(Nc2nc3cc(F)ccc3c3cn[nH]c23)cc1OC` [Example #336, N-(3,4-dimethoxyphenyl)-7-fluoro-3H-pyrazolo[3,4-c]quinolin-4-amine]: the Ki is 10 to 100 nM.

On to `COc1ccc2nc(Nc3cc(C)cc(C)n3)c3n[nH]cc3c2c1` [Example #156, (4,6-Dimethyl-pyridin-2-yl)-(8-methoxy-2H-pyrazolo[3,4-c]quinolin-4-yl)-amine], for which the Ki was 100 to 1000 nM.

Consider `COc1ccc2nc(Nc3ccc(Oc4ccccc4)cc3)c3n[nH]cc3c2c1` [Example #159, (8-Methoxy-2H-pyrazolo[3,4-c]quinolin-4-yl)-(4-phenoxy-phenyl)-amine], for which the Ki is 10 to 100 nM.

Take `Cn1ncc2ccc(Nc3nc4ccccc4c4c[nH]nc34)cc21` [Example #24, (1-Methyl-1H-indazol-6-yl)-(2H-pyrazolo[3,4-c]quinolin-4-yl)-amine]: the Ki was 100 to 1000 nM.

In the case of `COc1ccc2c(c1)nc(Nc1ccc(N3CCN(C)CC3)cc1)c1n[nH]cc12` [Example #176, (7-Methoxy-2H-pyrazolo[3,4-c]quinolin-4-yl)-[4-(4-methyl-piperazin-1-yl)-phenyl]-amine], the Ki was 10 to 100 nM.

On to `CN1CCN(c2ccc(Nc3nc4ccccc4c4c(C(F)(F)F)[nH]nc34)cc2)CC1` [Example #211, [4-(4-Methyl-piperazin-1-yl)-phenyl]-(1-trifluoromethyl-2H-pyrazolo[3,4-c]quinolin-4-yl)-amine], for which the Ki is 100 to 1000 nM.

With `COc1ccc2nc(Nc3ccc(-c4ccc(C(=O)O)cc4)cc3)c3n[nH]cc3c2c1` [Example #288, 4′-((8-methoxy-2H-pyrazolo[3,4-c]quinolin-4-yl)amino)-[1,1′-biphenyl]-4-carboxylic acid], the Ki is 100 to 1000 nM.

On to `COc1ccc2nc(Nc3ccc(Cc4ccccc4)cc3)c3n[nH]cc3c2c1` [Example #190, (4-Benzyl-phenyl)-(8-methoxy-2H-pyrazolo[3,4-c]quinolin-4-yl)-amine], for which the Ki is 100 to 1000 nM.

As to `COc1ccc2nc(Nc3ccc(N4CCOCC4)cc3C)c3n[nH]cc3c2c1` [Example #191, (8-Methoxy-2H-pyrazolo[3,4-c]quinolin-4-yl)-(2-methyl-4-morpholin-4-yl-phenyl)-amine], the Ki was 100 to 1000 nM.

With `Cn1ncc2ccc(Nc3nc4ccc(Br)cc4c4c[nH]nc34)cc21` [Example #35, (8-Bromo-2H-pyrazolo[3,4-c]quinolin-4-yl)-(1-methyl-1H-indazol-6-yl)-amine], the Ki was 100 to 1000 nM.

Consider `COc1ccc2nc(Nc3ccc4c(c3)COCO4)c3n[nH]cc3c2c1` [Example #146, (4H-Benzo[1,3]dioxin-6-yl)-(8-methoxy-2H-pyrazolo[3,4-c]quinolin-4-yl)-amine], for which the Ki is 100 to 1000 nM.

In the case of `COc1ccc2nc(Nc3nc(C)cs3)c3n[nH]cc3c2c1` [Example #157, (8-Methoxy-2H-pyrazolo[3,4-c]quinolin-4-yl)-(4-methyl-thiazol-2-yl)-amine], the Ki was 100 to 1000 nM.

Regarding `COc1ccc2nc(Nc3ccc(NC(=O)c4ccc(F)cc4)cc3)c3n[nH]cc3c2c1` [Example #358, 4-fluoro-N-(4-((8-methoxy-2H-pyrazolo[3,4-c]quinolin-4-yl)amino)phenyl)benzamide], the Ki is < 10 nM.

As for `COc1ccc2nc(Nc3ccc(N(C)C)c(C)c3)c3n[nH]cc3c2c1` [Example #178, N4-(8-Methoxy-2H-pyrazolo[3,4-c]quinolin-4-yl)-2,N1,N1-trimethyl-benzene-1,4-diamine], the Ki was 10 to 100 nM.

Turning to `c1ccc2c(c1)nc(Nc1ccc3cn[nH]c3c1)c1n[nH]cc12` [Example #6, (1H-Indazol-6-yl)-(2H-pyrazolo[3,4-c]quinolin-4-yl)-amine], the Ki was 10 to 100 nM.

For the compound `Brc1ccc2nc(Nc3ccc4[nH]ccc4c3)c3n[nH]cc3c2c1` [Example #99, (8-Bromo-2H-pyrazolo[3,4-c]quinolin-4-yl)-(1H-indol-5-yl)-amine], the Ki was 100 to 1000 nM.

On to `COc1ccc2nc(Nc3cc(F)cc(F)c3)c3n[nH]cc3c2c1` [Example #315, N-(3,5-difluorophenyl)-8-methoxy-2H-pyrazolo[3,4-c]quinolin-4-amine], for which the Ki is 100 to 1000 nM.

Regarding `COc1ccc2nc(Nc3cccc(N(C)C)c3)c3n[nH]cc3c2c1` [Example #76, N-(8-Methoxy-2H-pyrazolo[3,4-c]quinolin-4-yl)-N′,N′-dimethyl-benzene-1,3-diamine], the Ki was 100 to 1000 nM.

Regarding `c1ccc(Nc2nc3ccccc3c3c[nH]nc23)cc1` [Example #5, Phenyl-(2H-pyrazolo[3,4-c]quinolin-4-yl)-amine], the Ki is 100 to 1000 nM.

In the case of `c1ccc2c(c1)nc(Nc1ccc3[nH]ncc3c1)c1n[nH]cc12` [Example #4, (1H-Indazol-5-yl)-(2H-pyrazolo[3,4-c]quinolin-4-yl)-amine], the Ki was 100 to 1000 nM.

For the compound `c1ccc2c(c1)nc(Nc1ccc3c(c1)OCO3)c1n[nH]cc12` [Example #22, Benzo[1,3]dioxol-5-yl-(2H-pyrazolo[3,4-c]quinolin-4-yl)-amine], the Ki is 100 to 1000 nM.

Take `Cc1nsc2nc(Nc3ccc4cn[nH]c4c3)c3n[nH]cc3c12` [Example #219, (1H-Indazol-6-yl)-(1-methyl-7H-3-thia-2,4,6,7-tetraaza-as-indacen-5-yl)-amine]: the Ki is 10 to 100 nM.

As for `O=C(c1ccc(Nc2nc3cc(F)ccc3c3cn[nH]c23)cc1)N1CCCC1` [Example #342, (4-((7-fluoro-3H-pyrazolo[3,4-c]quinolin-4-yl)amino)phenyl)(pyrrolidin-1-yl)methanone], the Ki is 100 to 1000 nM.

With `COc1cc2nc(Nc3ccc(NC(=O)Nc4cccc(C)c4)cc3)c3n[nH]cc3c2cc1OC` [Example #299, 1-(4-((7,8-dimethoxy-2H-pyrazolo[3,4-c]quinolin-4-yl)amino)phenyl)-3-(m-tolyl)urea], the Ki is 100 to 1000 nM.

Regarding `c1cncc(Nc2nc3ccccc3c3cn[nH]c23)c1` [Example #23, (3H-Pyrazolo[3,4-c]quinolin-4-yl)-pyridin-3-yl-amine], the Ki is 100 to 1000 nM.

With `COc1ccc2nc(Nc3cc(C)c4[nH]ncc4c3)c3n[nH]cc3c2c1` [Example #10, (8-Methoxy-2H-pyrazolo[3,4-c]quinolin-4-yl)-(7-methyl-1H-indazol-5-yl)-amine], the Ki is 10 to 100 nM.

Turning to `COc1ccc(Nc2nc3cccnc3c3c[nH]nc23)cc1OC` [Example #123, (3,4-Dimethoxy-phenyl)-(2H-2,3,5,9-tetraaza-cyclopenta[a]naphthalen-4-yl)-amine], the Ki is 10 to 100 nM.

Regarding `COc1ccc2nc(Nc3ccc(F)c(F)c3)c3n[nH]cc3c2c1` [Example #311, N-(3,4-difluorophenyl)-8-methoxy-2H-pyrazolo[3,4-c]quinolin-4-amine], the Ki was 10 to 100 nM.

Take `COc1ccc2nc(Nc3ccc4c(O)ncnc4c3)c3[nH]ncc3c2c1` [Example #110, 7-(8-Methoxy-3H-pyrazolo[3,4-c]quinolin-4-ylamino)-quinazolin-4-ol]: the Ki was 100 to 1000 nM.

As to `c1ccc2cc(Nc3nc4ccccc4c4cn[nH]c34)ncc2c1` [Example #30, Isoquinolin-3-yl-(3H-pyrazolo[3,4-c]quinolin-4-yl)-amine], the Ki was 100 to 1000 nM.

In the case of `COC(=O)c1scc2c1nc(Nc1ccc(OC)c(OC)c1)c1n[nH]cc12` [Example #275, 4-((3,4-dimethoxyphenyl)amino)-2H-pyrazolo[4,3-d]thieno[3,4-b]pyridine-6-carboxylic acid methyl ester], the Ki was 100 to 1000 nM.

With `CCN1CCN(c2ccc(Nc3nc4cc(OC)ccc4c4c[nH]nc34)cc2)CC1` [Example #260, [4-(4-Ethyl-piperazin-1-yl)-phenyl]-(7-methoxy-2H-pyrazolo[3,4-c]quinolin-4-yl)-amine], the Ki is 10 to 100 nM.

As for `Brc1ccc2nc(Nc3ccc(N4CCCCC4)cc3)c3n[nH]cc3c2c1` [Example #83, (8-Bromo-2H-pyrazolo[3,4-c]quinolin-4-yl)-(4-piperidin-1-yl-phenyl)-amine], the Ki is 100 to 1000 nM.

For the compound `c1ccc2c(c1)nc(Nc1ccc3[nH]ccc3c1)c1n[nH]cc12` [Example #82, (1H-Indol-5-yl)-(2H-pyrazolo[3,4-c]quinolin-4-yl)-amine], the Ki was 100 to 1000 nM.
